ChEMBL document CHEMBL6127058, “Overview of the PRMT6 modulators in cancer treatment: Current progress and emerged opportunity” (Eur J Med Chem, 2024)
Values belong to the compound of their own block, whether it stands above or below them.

Columns and labels:
[1] = target: T1, Protein arginine N-methyltransferase 1 (Homo sapiens, UniProt Q99873); test: Inhibition of PRMT1 (unknown origin) by TR-FRET analysis
[2] = target: T1, Protein arginine N-methyltransferase 1; test: Inhibition of PRMT1 (unknown origin)
[3] = target: T2, Histone-arginine methyltransferase CARM1 (Homo sapiens, UniProt Q86X55); test: Inhibition PRMT4 (unknown origin)
T2 sequence (Q86X55 whole entry): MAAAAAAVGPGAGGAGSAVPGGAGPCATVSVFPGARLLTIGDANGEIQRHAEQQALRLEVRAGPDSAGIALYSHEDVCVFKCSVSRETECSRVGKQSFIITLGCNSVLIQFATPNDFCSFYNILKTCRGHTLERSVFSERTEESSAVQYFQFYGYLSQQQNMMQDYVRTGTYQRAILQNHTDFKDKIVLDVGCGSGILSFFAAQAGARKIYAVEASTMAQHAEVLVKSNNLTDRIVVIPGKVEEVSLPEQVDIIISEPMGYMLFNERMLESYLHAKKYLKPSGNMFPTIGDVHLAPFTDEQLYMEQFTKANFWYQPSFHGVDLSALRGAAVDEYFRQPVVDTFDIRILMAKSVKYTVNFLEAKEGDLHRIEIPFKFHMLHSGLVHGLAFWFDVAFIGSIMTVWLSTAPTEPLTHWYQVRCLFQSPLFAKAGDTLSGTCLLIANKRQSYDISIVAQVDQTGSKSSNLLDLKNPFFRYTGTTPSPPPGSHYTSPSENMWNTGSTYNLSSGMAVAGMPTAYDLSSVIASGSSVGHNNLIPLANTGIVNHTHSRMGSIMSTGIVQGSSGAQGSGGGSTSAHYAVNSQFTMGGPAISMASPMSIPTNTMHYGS

[4] = target: Protein arginine N-methyltransferase 8 (Homo sapiens, UniProt Q9NR22); test: Inhibition of PRMT8 (unknown origin)
Chain of Protein arginine N-methyltransferase 8 (Q9NR22 whole entry): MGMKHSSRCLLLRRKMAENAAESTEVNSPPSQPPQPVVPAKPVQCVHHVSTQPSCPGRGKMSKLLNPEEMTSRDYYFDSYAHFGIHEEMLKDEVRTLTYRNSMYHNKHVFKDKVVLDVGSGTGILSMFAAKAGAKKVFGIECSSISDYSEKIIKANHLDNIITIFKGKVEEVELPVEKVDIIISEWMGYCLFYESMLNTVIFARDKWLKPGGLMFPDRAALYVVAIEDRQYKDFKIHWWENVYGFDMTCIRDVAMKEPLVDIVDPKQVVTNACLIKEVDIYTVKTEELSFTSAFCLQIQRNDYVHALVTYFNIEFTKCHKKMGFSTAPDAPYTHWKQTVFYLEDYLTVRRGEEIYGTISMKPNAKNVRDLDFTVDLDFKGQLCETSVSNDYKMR

[5] = target: Protein arginine N-methyltransferase 6 (Homo sapiens, UniProt Q96LA8); test: Inhibition of PRMT6 (unknown origin)
Chain of Protein arginine N-methyltransferase 6 (Q96LA8 whole entry): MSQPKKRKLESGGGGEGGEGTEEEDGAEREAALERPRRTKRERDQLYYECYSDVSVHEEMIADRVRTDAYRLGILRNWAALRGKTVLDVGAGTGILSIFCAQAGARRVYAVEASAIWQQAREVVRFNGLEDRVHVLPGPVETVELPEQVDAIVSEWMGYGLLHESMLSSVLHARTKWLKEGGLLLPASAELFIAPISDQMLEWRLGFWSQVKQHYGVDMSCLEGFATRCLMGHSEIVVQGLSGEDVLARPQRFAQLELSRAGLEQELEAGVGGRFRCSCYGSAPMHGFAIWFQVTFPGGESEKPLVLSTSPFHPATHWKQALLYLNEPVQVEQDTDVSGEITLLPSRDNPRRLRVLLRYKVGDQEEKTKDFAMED

T1 sequence (Q99873 whole entry): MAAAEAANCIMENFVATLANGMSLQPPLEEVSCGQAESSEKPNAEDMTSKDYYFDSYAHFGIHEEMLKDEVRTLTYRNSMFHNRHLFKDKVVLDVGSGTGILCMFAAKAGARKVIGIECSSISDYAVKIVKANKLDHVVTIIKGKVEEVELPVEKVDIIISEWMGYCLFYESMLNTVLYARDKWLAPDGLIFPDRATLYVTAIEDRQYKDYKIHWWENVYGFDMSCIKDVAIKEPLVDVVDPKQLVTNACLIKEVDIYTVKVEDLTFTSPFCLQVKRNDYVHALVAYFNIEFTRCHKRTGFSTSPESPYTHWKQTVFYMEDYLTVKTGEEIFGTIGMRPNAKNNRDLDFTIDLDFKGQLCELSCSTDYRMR

- IC50 [1]: 0.0053 µM
SMILES: CNCCN(C)Cc1ccccc1Sc1ccccc1Cl

- IC50 [2]: > 10 µM
- IC50 [3]: > 10 µM
- IC50 [4]: > 10 µM
SMILES: Cc1cc(C)cc([C@@H]2c3cc(C)ccc3NC(=O)CN2C(=O)c2ccc(Br)s2)c1

- IC50 [5]: 22.3 µM
SMILES: C=CC(C)(C)c1cc(/C=C/C(=O)c2ccc(O)cc2)c(OC)cc1O [LICOAGROCHACONE A]
